Results published in patent US20070232694A1, “SKIN CLEANSER” (priority 2006, published 2007).

Key:
mycobacteria marinum = experiment: Finger infection, patient case; format: in vivo, human; settings: after eleven days of antibiotics
Method: Action against Mycobacteria: A person with four month long history of an infection on the posterior aspect of their right ring finger was treated. The infected areas were culture positive for mycobacteria marinum, with symptoms of infection resulting in a 4 cm long patchy zone of erythema, induration, and oozing from the wound. After failing two full courses of oral antibiotics, over the previous four months, the patient was given a third round of antibiotics, this time Clarythromycin, after their finger's condition had worsened.

[1] = test system: ATCC 29213 (MSSA) and ATCC 43330 (MRSA); experiment: Petri dish (Mueller-Hinton agar) drop test, zones of inhibition vs controls; format: cell-based, Staphylococcus aureus; settings: for order of anti-bacterial effectiveness: at a given concentration
Method: Testing was conducted at a pathology laboratory certified for microbiology testing by a physician and a microbiologist. A double blind, randomized controlled experiment was conducted to evaluate the surfactant compounds against bacteria in Petri dishes.
Bacterial strain: Two well characterized strains of methicillin-sensitive Staphylococcus aureus (MSSA) and methicillin-resistant Staphylococcus aureus (MRSA) were used. Specifically, experiments used ATCC 29213 (MSSA) and ATCC 43330 (MRSA), both beta-lactamase positive strains, which represent greater than 90% of the respective strains in the American population.
Petri dish preparation: A sterile cotton swab (American Scientific Products, McGraw Park, Ill.) was dipped into the cultures and used to swab the entire surface of 150×15 mm Petri dishes containing 75 ml of standard Mueller-Hinton agar. Two Petri dishes were inoculated with ATCC 29213 (MSSA and two Petri dishes with ATCC 43330 (MRSA). One Petri dish of each group (MSSA and MRSA) was set aside as the controls. The other two Petri dishes (MSSA and MRSA) were divided up in quadrants, and each quadrant was labeled B, C, D or E.
Cleanser compositions were prepared as follows: A surfactant solution containing about 10% by volume of sodium dodecylbenzenesulfonate was prepared. An aqueous stock solution containing 0.5% by volume sodium hypochlorite and 0.5% by volume abrasive (calcium carbonate and sodium carbonate) was prepared. The surfactant solution and stock solution were mixed in various ratios to produce four skin cleanser solutions having four different surfactant concentrations of 0.5%, 1%, 2% and 8%, by volume. The amount of sodium hypochlorite, calcium carbonate and sodium carbonate in each of the four skin cleanser solutions was less than 1% concentration by volume.
Cleanser Testing: Four samples of the cleanser with the four different concentrations of the surfactant (0.5%, 1%, 2% and 8%) were placed into four separate, unmarked bottles. Each bottle was randomly labeled (B, C, D, or E), and the microbiologist conducting the study was unaware of any difference between the solutions.
Application: Holding each bottle vertically, the microbiologist added a single drop from each bottle (B, C, D, or E) to the corresponding quadrant of the labeled Petri dish. All four Petri dishes were placed in an incubator overnight at 37 degrees Celsius, and examined 20 hours later. Petri dishes were compared to the corresponding controls, and zones of inhibition were characterized by the largest point of diameter of the circle or oval.
Four cleanser compositions were prepared and tested in the manner described in Example 1, except that each cleanser contained a different anionic surfactant. […]

Enterococcus = experiment: Infected decubitus ulcer, patient case; format: in vivo, human; settings: on antibiotics, five days after admission
Description: Action against Gram-positives such as Enterococcus: A person with long history of diabetes was admitted from their hospice care home to an acute care facility hospital secondary to an infected decubitus ulcer (bedsore). This patient's sacral ulcer tested positive from culture swab for Enterococcus, a common Gram-positive bacterium for infecting bedsores. Immediately upon admission, the patient was placed on antibiotics (ciprofloxacin). […] On day five, the treating physician directly cultured the wound again with two cotton swabs. Cotton swab #1, the control, was placed directly in the sealed container based on hospital protocol. Cotton swab #2 was placed into the sealed container, but one single vertical drop of a cleanser solution (prepared as described in Example 1). Both swabs were sent to the lab and a count of colony-forming units (CFUs) ordered.

Compound | order of anti-bacterial effectiveness [1] | other results
CC[C@H]1OC(=O)[C@H](C)[C@@H](O[C@H]2C[C@@](C)(OC)[C@@H](O)[C@H](C)O2)[C@H](C)[C@@H](O[C@@H]2O[C@H](C)C[C@H](N(C)C)[C@H]2O)[C@](C)(OC)C[C@@H](C)C(=O)[C@H](C)[C@@H](O)[C@]1(C)O [Clarythromycin] |  | symptoms of infection (mycobacteria marinum): no change in symptoms
CCCCCCCCCCCC(=O)N(C)CC(=O)[O-].[Na+] [N-lauroylsarcosine sodium salt] | sodium dodecylbenzenesulfonate >N-lauroylsarcosine sodium salt >sodium cholate, sodium deoxycholate | 
OCl [Sodium hypochlorite] |  | effect on anti-bacterial action of sodium dodecylbenzenesulfonate ([1]; synergy of action): potentiated
O=C(O)c1cn(C2CC2)c2cc(N3CCNCC3)c(F)cc2c1=O [ciprofloxacin] |  | course of ulcer (Enterococcus): signs of worsening
C[C@H](CCC(=O)[O-])[C@H]1CC[C@H]2[C@@H]3[C@H](O)C[C@@H]4C[C@H](O)CC[C@]4(C)[C@H]3C[C@H](O)[C@]12C.[Na+] [sodium cholate] | sodium dodecylbenzenesulfonate >N-lauroylsarcosine sodium salt >sodium cholate, sodium deoxycholate | 
sodium deoxycholate | sodium dodecylbenzenesulfonate >N-lauroylsarcosine sodium salt >sodium cholate, sodium deoxycholate | 
